# Measured values: the Kinase Knowledgebase extract (Sharma et al. 2016)
# How the values were obtained:
# EGFR (human) [1] = biological target: EGFR (human) (UniProt P00533); details: sk-br-3
# EGFR (human) [2] = biological target: EGFR (human) (UniProt P00533); details: a2780ddp
# EGFR (human) [3] = biological target: EGFR (human) (UniProt P00533); details: 3t3
# EGFR (human) [4] = biological target: EGFR (human) (UniProt P00533); details: a431
# EGFR (human) [5] = biological target: EGFR (human) (UniProt P00533); details: a2780
# EGFR (human) [6] = biological target: EGFR (human) (UniProt P00533); details: mda435
# EGFR = EGFR (UniProt P00533)
# Sequence of EGFR (P00533 whole entry, looked up): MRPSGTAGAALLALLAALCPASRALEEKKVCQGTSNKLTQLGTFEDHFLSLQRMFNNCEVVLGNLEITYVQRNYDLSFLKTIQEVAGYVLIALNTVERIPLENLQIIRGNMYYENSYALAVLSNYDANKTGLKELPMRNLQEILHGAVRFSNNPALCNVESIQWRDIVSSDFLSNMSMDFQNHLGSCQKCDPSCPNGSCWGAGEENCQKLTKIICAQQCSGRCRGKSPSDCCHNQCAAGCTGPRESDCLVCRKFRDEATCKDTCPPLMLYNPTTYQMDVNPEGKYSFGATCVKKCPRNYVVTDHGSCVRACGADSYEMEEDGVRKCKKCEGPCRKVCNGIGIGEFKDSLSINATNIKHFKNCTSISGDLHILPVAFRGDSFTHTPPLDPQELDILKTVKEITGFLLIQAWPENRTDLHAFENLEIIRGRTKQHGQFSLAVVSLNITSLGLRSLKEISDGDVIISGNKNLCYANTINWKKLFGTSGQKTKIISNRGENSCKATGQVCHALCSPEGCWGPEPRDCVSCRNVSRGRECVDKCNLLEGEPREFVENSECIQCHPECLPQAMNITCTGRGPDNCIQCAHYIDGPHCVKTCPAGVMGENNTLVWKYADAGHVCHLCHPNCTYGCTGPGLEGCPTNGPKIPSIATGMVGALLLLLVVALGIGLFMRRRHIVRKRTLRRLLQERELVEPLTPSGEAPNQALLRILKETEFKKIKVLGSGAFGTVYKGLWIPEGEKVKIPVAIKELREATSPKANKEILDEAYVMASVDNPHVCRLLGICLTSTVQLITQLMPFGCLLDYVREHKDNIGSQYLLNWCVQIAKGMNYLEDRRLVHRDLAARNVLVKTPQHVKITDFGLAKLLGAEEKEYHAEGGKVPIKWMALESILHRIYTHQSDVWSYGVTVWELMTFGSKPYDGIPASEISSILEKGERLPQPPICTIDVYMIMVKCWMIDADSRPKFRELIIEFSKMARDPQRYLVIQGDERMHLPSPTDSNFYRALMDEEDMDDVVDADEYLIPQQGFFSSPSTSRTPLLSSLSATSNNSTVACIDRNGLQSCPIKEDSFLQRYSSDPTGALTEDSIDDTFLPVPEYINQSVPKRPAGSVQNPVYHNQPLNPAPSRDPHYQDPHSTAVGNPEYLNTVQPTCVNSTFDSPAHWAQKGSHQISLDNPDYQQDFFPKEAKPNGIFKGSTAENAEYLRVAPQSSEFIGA
# Sequence of EGFR (human) (P00533 whole entry, looked up): as above
smiles,measurement,setting,value
N#Cc1cnc2cnc(NCCN3CCOCC3)cc2c1Nc1cccc(Br)c1,IC50,EGFR (human) [1],0.4 µg/mL
same,IC50,EGFR (human) [2],0.8 µg/mL
CN(C)C/C=C/C(=O)Nc1cc2c(Nc3cccc(Br)c3)c(C#N)cnc2cn1,IC50,EGFR (human) [3],0.272 to 0.373 µg/mL
CNc1cc2c(Nc3cccc(Br)c3)c(C#N)cnc2cn1,IC50,EGFR (human) [4],0.209 to 0.31 µg/mL
same,IC50,EGFR (human) [5],0.74 to 2.36 µg/mL
same,IC50,EGFR (human) [2],0.43 to 2.25 µg/mL
same,IC50,EGFR (human) [6],0.98 to 3.94 µg/mL
CC#CC(=O)Nc1cc2c(Nc3cccc(Br)c3)c(C#N)cnc2cn1,IC50,EGFR (human) [5],0.06 µg/mL
CN(C)C/C=C/C(=O)Nc1cnc2ncc(C#N)c(Nc3cccc(Br)c3)c2c1,IC50,EGFR,800 nM
CCOc1ccc2ncc(C#N)c(Nc3cccc(Br)c3)c2n1,IC50,EGFR,> 10000 nM
COc1ccc(CNc2cc3c(Nc4cccc(Br)c4)c(C#N)cnc3cn2)cc1,IC50,EGFR,> 100 nM
